In patent publication US9199943B2, “2-(poly-substituted aryl)-6-amino-5-halo-4-pyrimidinecarboxylic acids and their use as herbicides” (Dow AgroSciences, LLC., priority 2006, dated 2015):

Experiments:
[1] = test system: CHEAL = lambsquarter (Chenopodium album); assay: General postemergence herbicidal activity, lambsquarter; assay type: in vivo; details: Chenopodium album, post-emergence, 336 h; post-emergent, 140 g ai/ha, visual score after 14 days (0 no injury, 100 complete kill)
Experimental: Seeds or nutlets of the desired test plant species were planted in Sun Gro MetroMix® 306 planting mixture, which typically has a pH of 6.0 to 6.8 and an organic matter content of about 30 percent, in plastic pots with a surface area of 64 square centimeters. When required to ensure good germination and healthy plants, a fungicide treatment and/or other chemical or physical treatment was applied. The plants were grown for 7-21 days in a greenhouse with an approximate 15 hour photoperiod which was maintained at about 23-29° C. during the day and 22-28° C. during the night. Nutrients and water were added on a regular basis and supplemental lighting was provided with overhead metal halide 1000-Watt lamps as necessary. The plants were employed for testing when they reached the first or second true leaf stage.
A weighed amount, determined by the highest rate to be tested, of each test compound was placed in a 25 mL glass vial and was dissolved in 4 mL of a 97:3 v/v (volume/volume) mixture of acetone and dimethyl sulfoxide (DMSO) to obtain concentrated stock solutions. […] The concentrated stock solutions obtained were diluted with 20 mL of an aqueous mixture containing acetone, water, isopropyl alcohol, DMSO, Atplus 411F crop oil concentrate, and Triton X-155 surfactant in a 48.5:39:10:1.5:1.0:0.02 v/v ratio to obtain spray solutions containing the highest application rates. Additional application rates were obtained by serial dilution of 12 mL of the high rate solution into a solution containing 2 mL of 97:3 v/v (volume/volume) mixture of acetone and dimethyl sulfoxide (DMSO) and 10 mL of an aqueous mixture containing acetone, water, isopropyl alcohol, DMSO, Atplus 411F crop oil concentrate, and Triton X-155 surfactant in a 48.5:39:10:1.5:1.0:0.02 v/v ratio to obtain ½×, ¼×, ⅛× and 1/16× rates of the high rate. Compound requirements are based upon a 12 mL application volume at a rate of 187 L/ha. Formulated compounds were applied to the plant material with an overhead Mandel track sprayer equipped with a 8002E nozzles calibrated to deliver 187 L/ha over an application area of 0.503 square meters at a spray height of 18 inches (43 cm) above the average plant canopy height. Control plants were sprayed in the same manner with the solvent blank.
(§1) The treated plants and control plants were placed in a greenhouse as described above and watered by sub-irrigation to prevent wash-off of the test compounds. After 14 days, the condition of the test plants as compared with that of the untreated plants was determined visually and scored on a scale of 0 to 100 percent where 0 corresponds to no injury and 100 corresponds to complete kill.
By applying the well-accepted probit analysis as described by J. Berkson in Journal of the […], 48, 565 (1953) and by D. Finney in “Probit Analysis” Cambridge University Press (1952), the above data can be used to calculate GR50 and GR80 values, which are defined as growth reduction factors that correspond to the effective dose of herbicide required to kill or control 50 percent or 80 percent, respectively, of a target plant.

[2] = test system: VERPE = Veronica persica; assay: Postemergence herbicidal activity in cereal crops, Veronica persica; assay type: in vivo; details: post-emergence, 480 h, post-emergent, after 20-22 days; for pest or weed control at 35 g/ha: 35 g ai/ha; for pest or weed control at 17.5 g/ha: 17.5 g ai/ha; for pest or weed control at 70 g/ha: 70 g ai/ha
Experimental: Seeds of the desired test plant species were planted in Sun Gro MetroMix® 306 planting mixture, which typically has a pH of 6.0 to 6.8 and an organic matter content of about 30 percent, in plastic pots with a surface area of 103.2 square centimeters. When required to ensure good germination and healthy plants, a fungicide treatment and/or other chemical or physical treatment was applied. The plants were grown for 7-36 days in a greenhouse with an approximate 14 hour photoperiod which was maintained at about 18° C. during the day and 17° C. during the night. Nutrients and water were added on a regular basis and supplemental lighting was provided with overhead metal halide 1000-Watt lamps as necessary. The plants were employed for testing when they reached the second or third true leaf stage.
A weighed amount, determined by the highest rate to be tested, of each test compound was placed in a 25 mL glass vial and was dissolved in 8 mL of a 97:3 v/v mixture of acetone and DMSO to obtain concentrated stock solutions. […] The concentrated stock solutions obtained were diluted with 16 mL of an aqueous mixture containing acetone, water, isopropyl alcohol, DMSO, Agri-dex crop oil concentrate, and Triton X-77 surfactant in a 64.7:26.0:6.7:2.0:0.7:0.01 v/v ratio to obtain spray solutions containing the highest application rates. Additional application rates were obtained by serial dilution of 12 mL of the high rate solution into a solution containing 4 mL of 97:3 v/v mixture of acetone and DMSO and 8 mL of an aqueous mixture containing acetone, water, isopropyl alcohol, DMSO, Agri-dex crop oil concentrate, and Triton X-77 surfactant in a 48.5:39.0:10.0:1.5:1.0:0.02 v/v ratio to obtain ½×, ¼×, ⅛× and 1/16× rates of the high rate. Compound requirements are based upon a 12 mL application volume at a rate of 187 L/ha. Formulated compounds were applied to the plant material with an overhead Mandel track sprayer equipped with a 8002E nozzles calibrated to deliver 187 L/ha over an application area of 0.503 square meters at a spray height of 18 inches (43 cm) above average plant canopy height. Control plants were sprayed in the same manner with the blank.
as §1, with “20-22” for “14”

SMILES	pest or weed control at 140 g/ha [1] [%]	pest or weed control at 35 g/ha [2] [%]	pest or weed control at 17.5 g/ha [2] [%]	pest or weed control at 70 g/ha [2] [%]
CCOc1c(Cl)ccc(-c2nc(N)c(Cl)c(C(=O)OC)n2)c1F [Compound 1, 6-amino-5-chloro-2-(4-chloro-3-ethoxy-2-fluorophenyl)-pyrimidine-4-carboxylic acid methyl ester]	100	20		
COC(=O)c1nc(-c2c(F)cc(Cl)c(OC)c2F)nc(N)c1Cl [Compound 2, 6-amino-5-chloro-2-(4-chloro-2,6-difluoro-3-methoxy-phenyl)pyrimidine-4-carboxylic acid methyl ester]	100	50		
COC(=O)c1nc(-c2ccc(Cl)c(OC)c2F)nc(N)c1Cl [Compound 3, 6-amino-5-chloro-2-(4-chloro-2-fluoro-3-methoxyphenyl)-pyrimidine-4-carboxylic acid methyl ester]	100		99	
COC(=O)c1nc(-c2ccc(Cl)c(OC)c2Cl)nc(N)c1Cl [Compound 6, 6-Amino-5-chloro-2-(2,4-dichloro-3-methoxyphenyl)pyrimidine-4-carboxylic acid methyl ester]	100			99
COC(=O)c1nc(-c2ccc(Cl)c(C(F)F)c2F)nc(N)c1Cl [Compound 7, 6-Amino-5-chloro-2-(4-chloro-3-difluoromethyl-2-fluorophenyl)pyrimidine-4-carboxylic acid methyl ester]	100		95	
COC(=O)c1nc(-c2ccc(Cl)c(N(C)C)c2F)nc(N)c1Cl [Compound 8, 6-Amino-5-chloro-2-(4-chloro-3-dimethylamino-2-fluorophenyl)pyrimidine-4-carboxylic acid methyl ester]	100	95		
COC(=O)c1nc(-c2ccc3c(c2F)OCO3)nc(N)c1Cl [Compound 9, 6-Amino-5-chloro-2-(4-fluorobenzo[1,3]dioxol-5-yl)pyrimidine-4-carboxylic acid methyl ester]	90			30
COC(=O)c1nc(-c2ccc(Cl)c(OCC(F)F)c2F)nc(N)c1Cl [Compound 10, 6-Amino-5-chloro-2-[4-chloro-3-(2,2-difluoroethoxy)-2-fluorophenyl]-pyrimidine-4-carboxylic acid methyl ester]	85			20
COC(=O)c1nc(-c2ccc(Cl)c(OC)c2F)nc(N)c1Br [Compound 13, 6-amino-5-bromo-2-(4-chloro-2-fluoro-3-methoxyphenyl)-pyrimidine-4-carboxylic acid methyl ester]	100		95	
